US10004732B2 (Novartis AG, priority 2014, dated 2018)

How the values were obtained:
PI 3-kinase alpha [1] = target: T1, PI 3-kinase alpha (Homo sapiens, UniProt P42336); experiment: Kinase Glo Luminescent Kinase Assay (Kglo), assay A; assay type: biochemical; details: read-out: Assay A PI3Kα IC50
PI 3-kinase beta [2] = target: T2, PI 3-kinase beta (Homo sapiens, UniProt P42338); experiment: Kinase Glo Luminescent Kinase Assay (Kglo), assay B; assay type: biochemical; details: read-out: Assay B PI3Kβ IC50
Vps34 = Vps34 (Homo sapiens, UniProt Q8NEB9); experiment: Kinase Glo Luminescent Kinase Assay (Kglo), assay C; assay type: biochemical; details: read-out: Assay C VPS34 IC50
Description: Kinase Glo Luminescent Kinase Assay (Kglo) for Pb 3-Kinase Alpha (A), Pb 3-Kinase Beta (B), Vps34 (C), Pb 4-Kinase Beta (D)
The Kinase Glo Luminescent Kinase Assay (Promega, Madison/Wis., USA) is a homogeneous HTS method of measuring kinase activity by quantifying the amount of ATP remaining in solution following a kinase reaction.
L-α-phosphatidylinositol (PI), provided as 10 mg/ml solution in methanol, was transferred into a glass tube and dried under a nitrogen beam. It was then resuspended in 3% OctylGlucoside (1-0-n-octyl-beta-D-glucopyranoside) by vortexing and stored at 4° C. 5 μL of a mix of PI/OctylGlucoside with the PI 3-kinase alpha and PI 3-kinase beta subtypes, or Vps34 or PI 4-kinase beta were added. Kinase reactions were started by the addition of 5 μl of an ATP-mix containing in a final volume 10 μL 10 mM TRIS-HCl pH 7.5, 3 mM MgCl2, 50 mM NaCl, 0.05% CHAPS, 1 mM DTT and 1 μM ATP at room temperature.
All fits were performed with the program XLfit4 (ID Business Solutions, Guildford, UK).

PI 4-kinase beta = PI 4-kinase beta (Homo sapiens, UniProt Q9UBF8); experiment: Kinase Glo Luminescent Kinase Assay (Kglo), assay D; assay type: biochemical; details: read-out: Assay D PI4Kβ IC50
PI 3-kinase gamma [3] = target: T3, PI 3-kinase gamma (Homo sapiens, UniProt P48736); experiment: TR-FRET Adapta assay, assay E; assay type: biochemical; details: read-out: Assay E PI3Kγ IC50
mTOR = mTOR (Homo sapiens, UniProt P42345); experiment: Lanthascreen kinase binding assay, assay G; details: read-out: Assay G mTOR IC50
Description: Lanthascreen™ Kinase Binding Assay for mTOR (G)
Binding of an inhibitor to the kinase competes for binding with the tracer, resulting in a loss of FRET.
50 nL of compound dilutions were dispensed onto white 384-well small volume polystyrene plate.

PI 3-kinase gamma [4] = target: T3, PI 3-kinase gamma; experiment: Cellular U937 AKT assay K1 (MSD); assay type: cell-based; details: U937 cells, K1 format; read-out: Assay K1 PI3Kγ IC50
PI 3-kinase delta [5] = target: T4, PI 3-kinase delta (Homo sapiens, UniProt O00329); experiment: TR-FRET Adapta assay, assay F; details: read-out: Assay F PI3Kδ IC50
Target sequence in this assay (O00329 whole entry): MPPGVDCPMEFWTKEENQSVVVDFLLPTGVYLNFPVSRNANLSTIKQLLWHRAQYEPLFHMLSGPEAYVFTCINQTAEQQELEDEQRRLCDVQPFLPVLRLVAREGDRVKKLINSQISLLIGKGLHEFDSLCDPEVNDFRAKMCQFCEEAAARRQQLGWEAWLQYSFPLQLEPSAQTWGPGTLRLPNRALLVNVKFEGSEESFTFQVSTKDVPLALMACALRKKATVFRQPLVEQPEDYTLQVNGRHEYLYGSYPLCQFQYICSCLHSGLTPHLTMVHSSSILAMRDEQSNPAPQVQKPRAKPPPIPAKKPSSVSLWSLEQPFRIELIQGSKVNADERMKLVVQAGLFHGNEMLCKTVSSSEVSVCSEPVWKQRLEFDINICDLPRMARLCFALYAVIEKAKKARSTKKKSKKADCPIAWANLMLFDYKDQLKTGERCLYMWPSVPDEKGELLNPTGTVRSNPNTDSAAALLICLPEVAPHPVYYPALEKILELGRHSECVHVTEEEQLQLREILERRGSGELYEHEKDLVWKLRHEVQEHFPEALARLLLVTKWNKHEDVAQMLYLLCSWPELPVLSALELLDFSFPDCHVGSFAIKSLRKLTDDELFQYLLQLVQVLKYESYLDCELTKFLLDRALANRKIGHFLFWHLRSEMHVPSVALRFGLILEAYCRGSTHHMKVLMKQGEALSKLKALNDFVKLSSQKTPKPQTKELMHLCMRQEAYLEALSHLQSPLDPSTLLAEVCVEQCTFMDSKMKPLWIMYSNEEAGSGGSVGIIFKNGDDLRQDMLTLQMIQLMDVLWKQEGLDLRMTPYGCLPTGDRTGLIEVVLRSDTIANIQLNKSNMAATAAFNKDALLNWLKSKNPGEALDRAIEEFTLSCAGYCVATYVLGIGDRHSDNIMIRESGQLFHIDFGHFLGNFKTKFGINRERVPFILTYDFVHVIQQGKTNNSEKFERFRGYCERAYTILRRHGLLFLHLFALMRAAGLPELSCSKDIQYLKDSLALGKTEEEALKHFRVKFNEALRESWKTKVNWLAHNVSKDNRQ
Target sequence in this assay (P27986 461-568 partner): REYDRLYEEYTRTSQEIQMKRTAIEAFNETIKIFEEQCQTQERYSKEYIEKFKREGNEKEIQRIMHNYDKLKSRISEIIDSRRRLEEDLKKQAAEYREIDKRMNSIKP

[6] = Microsomal clearance assay (M); details: intrinsic clearance in rat liver microsomes
Description: The experiments were performed in 96-well glass plates at 37° C. on an automated Tecan EVO platform. Test compounds at a concentration of 10 mM in pure DMSO were diluted 1:1000 in water to 10 μM. […] Reactions were initiated by the addition of 150 μL of a cofactor solution containing 2 mM NADPH.

PI 3-kinase beta [7] = target: T2, PI 3-kinase beta; experiment: Cellular assay I1, p-Akt (S473) in Rat-1 cells, Surefire format; assay type: cell-based; details: non-asterisked data: version I1 (Surefire format), Rat-1 cells; read-out: Assay I PI3Kβ IC50
PI 3-kinase delta [8] = target: T4, PI 3-kinase delta; experiment: Cellular assay J1, p-Akt (S473) in Rat-1 cells, Surefire format; assay type: cell-based; details: non-asterisked data: version J1 (Surefire format), Rat-1 cells; read-out: Assay J PI3Kδ IC50
Target sequence in this assay (O00329 whole entry): as the sequence (O00329 whole entry) above
Target sequence in this assay (Q63787 whole entry partner): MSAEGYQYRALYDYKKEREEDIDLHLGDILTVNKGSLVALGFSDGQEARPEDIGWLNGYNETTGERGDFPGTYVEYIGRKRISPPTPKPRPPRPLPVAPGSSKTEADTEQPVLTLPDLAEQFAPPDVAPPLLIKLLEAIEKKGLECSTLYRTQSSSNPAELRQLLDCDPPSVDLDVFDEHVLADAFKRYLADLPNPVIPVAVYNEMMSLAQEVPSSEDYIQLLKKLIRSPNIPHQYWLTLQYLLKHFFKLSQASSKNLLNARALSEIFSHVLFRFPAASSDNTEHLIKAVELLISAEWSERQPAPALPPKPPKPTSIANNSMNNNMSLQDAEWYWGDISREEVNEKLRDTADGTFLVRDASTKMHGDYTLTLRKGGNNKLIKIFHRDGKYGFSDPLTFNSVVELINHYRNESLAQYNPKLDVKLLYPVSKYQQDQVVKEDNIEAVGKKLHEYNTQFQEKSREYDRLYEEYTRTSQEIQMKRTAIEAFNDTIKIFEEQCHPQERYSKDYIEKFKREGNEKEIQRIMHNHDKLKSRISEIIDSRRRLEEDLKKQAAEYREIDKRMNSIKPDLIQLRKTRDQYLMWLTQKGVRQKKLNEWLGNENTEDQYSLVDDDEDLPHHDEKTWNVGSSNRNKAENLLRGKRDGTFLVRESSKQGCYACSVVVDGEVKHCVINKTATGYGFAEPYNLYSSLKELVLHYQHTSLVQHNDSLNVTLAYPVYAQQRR

PI 3-kinase alpha [9] = target: T1, PI 3-kinase alpha; experiment: Cellular assay H1, p-Akt (S473) in Rat-1 cells, Surefire format; assay type: cell-based; details: non-asterisked data: version H1 (Surefire format), Rat-1 cells; read-out: Assay H PI3Kα IC50

Chain of PI 4-kinase beta (Q9UBF8 whole entry): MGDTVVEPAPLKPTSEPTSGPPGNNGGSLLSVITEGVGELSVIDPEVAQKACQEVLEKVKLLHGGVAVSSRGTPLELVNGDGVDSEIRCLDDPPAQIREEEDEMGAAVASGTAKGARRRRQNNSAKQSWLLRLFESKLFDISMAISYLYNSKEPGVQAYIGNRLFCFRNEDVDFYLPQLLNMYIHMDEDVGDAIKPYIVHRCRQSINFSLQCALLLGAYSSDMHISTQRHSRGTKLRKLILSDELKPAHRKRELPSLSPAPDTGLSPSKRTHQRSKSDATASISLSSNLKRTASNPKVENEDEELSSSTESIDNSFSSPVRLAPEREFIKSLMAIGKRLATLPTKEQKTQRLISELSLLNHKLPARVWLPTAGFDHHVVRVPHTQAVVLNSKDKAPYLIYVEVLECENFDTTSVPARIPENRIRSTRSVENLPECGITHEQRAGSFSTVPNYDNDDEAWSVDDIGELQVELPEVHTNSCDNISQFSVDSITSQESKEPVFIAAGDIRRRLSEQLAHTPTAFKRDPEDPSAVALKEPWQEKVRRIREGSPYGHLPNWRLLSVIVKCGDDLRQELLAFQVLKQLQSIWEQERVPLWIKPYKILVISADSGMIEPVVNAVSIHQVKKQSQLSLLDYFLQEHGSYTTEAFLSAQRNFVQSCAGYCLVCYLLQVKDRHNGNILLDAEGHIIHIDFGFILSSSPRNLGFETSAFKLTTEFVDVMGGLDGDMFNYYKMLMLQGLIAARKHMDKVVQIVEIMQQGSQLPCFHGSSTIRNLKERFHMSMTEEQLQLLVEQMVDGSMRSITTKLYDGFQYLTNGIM
Chain of Vps34 (Q8NEB9 whole entry, species assumed): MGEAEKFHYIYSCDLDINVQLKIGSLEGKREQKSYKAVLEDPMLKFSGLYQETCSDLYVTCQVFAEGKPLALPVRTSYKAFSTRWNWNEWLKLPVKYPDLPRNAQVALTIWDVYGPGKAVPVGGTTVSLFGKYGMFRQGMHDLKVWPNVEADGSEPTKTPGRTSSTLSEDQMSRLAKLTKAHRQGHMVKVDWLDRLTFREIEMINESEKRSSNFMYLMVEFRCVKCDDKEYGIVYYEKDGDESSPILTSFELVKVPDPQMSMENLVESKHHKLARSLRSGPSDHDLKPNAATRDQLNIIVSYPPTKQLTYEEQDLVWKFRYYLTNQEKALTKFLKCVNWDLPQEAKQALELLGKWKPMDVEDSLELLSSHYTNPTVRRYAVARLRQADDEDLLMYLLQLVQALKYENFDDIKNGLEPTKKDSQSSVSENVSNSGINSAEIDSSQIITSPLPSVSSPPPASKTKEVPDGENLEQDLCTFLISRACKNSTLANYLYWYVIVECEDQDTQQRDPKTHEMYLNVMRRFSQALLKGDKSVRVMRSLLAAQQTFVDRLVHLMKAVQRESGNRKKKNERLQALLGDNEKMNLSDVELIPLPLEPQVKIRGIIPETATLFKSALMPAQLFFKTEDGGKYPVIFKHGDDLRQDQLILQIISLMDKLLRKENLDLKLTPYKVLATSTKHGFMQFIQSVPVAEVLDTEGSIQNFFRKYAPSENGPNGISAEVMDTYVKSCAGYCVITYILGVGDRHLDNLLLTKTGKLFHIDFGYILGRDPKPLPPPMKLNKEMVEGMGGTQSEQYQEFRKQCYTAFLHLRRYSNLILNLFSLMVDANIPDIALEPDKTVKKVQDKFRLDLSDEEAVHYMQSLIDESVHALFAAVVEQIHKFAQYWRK
T3 sequence (P48736 whole entry): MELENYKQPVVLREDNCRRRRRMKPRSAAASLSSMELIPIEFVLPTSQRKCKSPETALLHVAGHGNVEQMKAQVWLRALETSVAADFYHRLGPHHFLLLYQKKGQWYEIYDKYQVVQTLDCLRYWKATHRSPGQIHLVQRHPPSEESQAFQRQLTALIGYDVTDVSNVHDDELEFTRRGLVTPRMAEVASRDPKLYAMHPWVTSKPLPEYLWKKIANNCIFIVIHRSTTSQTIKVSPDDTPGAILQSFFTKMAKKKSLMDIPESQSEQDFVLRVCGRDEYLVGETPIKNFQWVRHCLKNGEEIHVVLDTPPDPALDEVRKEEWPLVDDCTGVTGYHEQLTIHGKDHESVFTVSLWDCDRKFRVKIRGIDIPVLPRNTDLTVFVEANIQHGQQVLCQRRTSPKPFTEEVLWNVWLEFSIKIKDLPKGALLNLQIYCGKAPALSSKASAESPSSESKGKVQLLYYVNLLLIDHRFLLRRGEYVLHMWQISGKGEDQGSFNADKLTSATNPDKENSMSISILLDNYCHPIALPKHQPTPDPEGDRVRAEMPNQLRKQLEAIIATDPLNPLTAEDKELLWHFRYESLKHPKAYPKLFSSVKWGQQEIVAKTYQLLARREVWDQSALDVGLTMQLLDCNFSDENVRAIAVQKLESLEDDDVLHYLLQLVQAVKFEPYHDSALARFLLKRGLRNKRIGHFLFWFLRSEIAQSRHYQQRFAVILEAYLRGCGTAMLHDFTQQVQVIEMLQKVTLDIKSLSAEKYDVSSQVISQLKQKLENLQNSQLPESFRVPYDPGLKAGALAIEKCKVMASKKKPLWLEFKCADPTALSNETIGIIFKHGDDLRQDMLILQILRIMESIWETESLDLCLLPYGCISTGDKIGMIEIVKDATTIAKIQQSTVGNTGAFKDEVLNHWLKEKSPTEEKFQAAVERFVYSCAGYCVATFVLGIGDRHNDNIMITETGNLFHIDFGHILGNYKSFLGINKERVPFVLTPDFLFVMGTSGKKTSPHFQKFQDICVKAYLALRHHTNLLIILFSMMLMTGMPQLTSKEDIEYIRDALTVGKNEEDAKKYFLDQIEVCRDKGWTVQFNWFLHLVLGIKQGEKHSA

| IC50 (PI 3-kinase alpha [1]) [nM] | IC50 (PI 3-kinase beta [2]) [nM] | IC50 (Vps34) [nM] | IC50 (PI 4-kinase beta) [nM] | IC50 (PI 3-kinase gamma [3]) [nM] | IC50 (mTOR) [nM] | IC50 (PI 3-kinase gamma [4]) [nM] | IC50 (PI 3-kinase delta [5]) [nM] | Assay M RLM CI(int) [6] [µL/min/mg] | IC50 (PI 3-kinase beta [7]) [nM] | IC50 (PI 3-kinase delta [8]) [nM] | IC50 (PI 3-kinase alpha [9]) [nM] | Compound |
| --- | --- | --- | --- | --- | --- | --- | --- | --- | --- | --- | --- | --- |
| 360 | 1900 | > 10000 | > 10000 | 98 | 3000 | 320 | 1200 |  |  |  |  | Cc1ccc(S(=O)(=O)N[C@H]2CCOC2)cc1-c1cnc(N)c(-n2cncn2)n1 [Example 127.21] |
| 270 | 970 | > 10000 | 8300 | 40 | 3900 | 156 | 500 |  |  |  |  | Cc1ccc(S(=O)(=O)NC[C@@](C)(O)C(F)(F)F)cc1-c1cnc(N)c(-n2cncn2)n1 [Example 127.22] |
| 220 | 4410 | > 9100 | > 9100 | 34 | > 9100 | 1280 | 170 | 48 |  |  |  | Cc1cc(-c2nc(-c3cc(S(=O)(=O)NCCC(C)(C)O)ccc3C)cnc2N)n(C)n1 [Example 119.36] |
| 200 | 790 | > 10000 | 1800 | 27 | 4700 | 168 | 320 |  |  |  |  | Cc1ccc(S(=O)(=O)NCCC(C)(O)C(F)(F)F)cc1-c1cnc(N)c(-n2cncn2)n1 (centres unmarked) [Example 127.24] |
| 150 | 3600 | > 9100 | 2460 | 12 | 8690 | 85 | 100 | 188 |  |  |  | Cc1ccc(S(=O)(=O)NCCC(C)(C)O)cc1-c1cnc(N)c(-c2cccs2)n1 [Example 119.45] |
| 760 | 1400 | > 10000 | > 10000 | 36 | 3800 | 40 | 840 | 92 |  |  |  | Cc1nc(-c2nc(-c3cc(S(=O)(=O)NCC(C)(C)O)ccc3C)cnc2N)c(C)s1 [Example 40, 3-(5-Amino-6-(2,5-dimethylthiazol-4-yl)pyrazin-2-yl)-N-(2-hydroxy-2-methylpropyl)-4-methylbenzenesulfonamide] |
| 180 | 580 | > 10000 | 2900 | 23 |  | 82 | 360 |  |  |  |  | Cc1ccc(S(=O)(=O)NC[C@](C)(O)C(F)(F)F)cc1-c1cnc(N)c(-n2cncn2)n1 [Example 127.23] |
| 380 | 3200 | > 10000 | 3400 | 160 | > 10000 | 371 | > 10000 |  |  |  |  | Cc1ccc(S(=O)(=O)N2CCC(F)(F)C2)cc1-c1cnc(N)c(-n2cncn2)n1 [Example 127.3] |
| 300 | > 9100 | > 9100 | > 9100 | 28 | > 9100 | 144 | 260 | 170 | > 10000 | 5860 |  | Cc1cc(-c2nc(-c3cc(S(=O)(=O)NCCC(C)(O)C(F)(F)F)ccc3C)cnc2N)ccn1 (centres unmarked) [Example 129.13, 3-(5-amino-6-(2-methylpyridin-4-yl)pyrazin-2-yl)-4-methyl-N-(4,4,4-trifluoro-3-hydroxy-3-methylbutyl)benzenesulfonamide] |
| 280 | 530 | > 10000 | 3800 | 26 | 6100 | 210 | 1100 |  |  |  |  | Cc1ccc(S(=O)(=O)NC[C@@H](C)O)cc1-c1cnc(N)c(-n2cncn2)n1 [Example 127.13] |
| 450 | 5100 | > 10000 | 8400 | 160 | > 10000 | 290 | 3500 |  |  |  |  | Cc1ccc(S(=O)(=O)NCCF)cc1-c1cnc(N)c(-n2cncn2)n1 [Example 127.28] |
| 550 | 3350 |  | > 9550 | 92 | 8800 | 276 | 550 | 62 |  |  |  | Cc1noc(-c2nc(-c3cc(S(=O)(=O)NC[C@H]4C[C@@H](O)C4)ccc3C)cnc2N)n1 [Example 96, 3-(5-Amino-6-(3-methyl-1,2,4-oxadiazol-5-yl)pyrazin-2-yl)-N-(((1s,3s)-3-hydroxycyclobutyl)methyl)-4-methylbenzenesulfonamide] |
| 250 | 1780 | > 9100 | > 9100 | 54 | 3370 | 60 | 100 | 136 |  |  |  | Cc1csc(-c2nc(-c3cc(S(=O)(=O)NCCC(C)(C)O)ccc3C)cnc2N)c1 [Example 119.43] |
| 370 | 2450 | 4300 | 4950 | 42 | 3700 | 493 | 760 | 42 |  |  |  | Cc1ccc(S(=O)(=O)NCC2COC2)cc1-c1cnc(N)c(-n2cncn2)n1 [Example 131, 3-(5-Amino-6-(1H-1,2,4-triazol-1-yl)pyrazin-2-yl)-4-methyl-N-(oxetan-3-ylmethyl)benzenesulfonamide] |
| 130 | 650 | > 10000 | 4400 | 31 | 3300 | 66 | 340 | 493 |  |  |  | Cc1ccc(S(=O)(=O)NCC2(CO)CCCC2)cc1-c1cnc(N)c(-n2cncn2)n1 [Example 127.25] |
| 240 | 2200 | > 9550 | 1550 | 13 | 2350 | 66 | 180 | 152 |  |  |  | Cc1ccc(S(=O)(=O)NCCC(C)(C)O)cc1-c1cnc(N)c(-c2cc(C3CC3)no2)n1 [Example 78, 3-(5-Amino-6-(3-cyclopropylisoxazol-5-yl)pyrazin-2-yl)-N-(3-hydroxy-3-methylbutyl)-4-methylbenzenesulfonamide] |
| 2600 | 6300 | > 10000 | 9000 | 77 | > 10000 |  | 2500 | 29 | > 10000 | 4040 | > 10000 | Cc1ccc(S(=O)(=O)NCC(C)(C)O)cc1-c1cnc(N)c(-c2cn(C)nn2)n1 [Example 81, 3-(5-Amino-6-(1-methyl-1H-1,2,3-triazol-4-yl)pyrazin-2-yl)-N-(2-hydroxy-2-methylpropyl)-4-methylbenzenesulfonamide] |
| 860 | 1300 | > 10000 | 5400 | 104 | > 10000 | 137 | 1200 |  | > 10000 | > 10000 |  | Cc1ccc(S(=O)(=O)NOCCN(C)C)cc1-c1cnc(N)c(-n2cncn2)n1 [Example 112.2, 3-(5-Amino-6-(1H-1,2,4-triazol-1-yl)pyrazin-2-yl)-N-(2-(dimethylamino)ethoxy)-4-methylbenzenesulfonamide] |
| 890 | 1200 | > 10000 | 7400 | 38 | > 10000 | 392 | 1100 |  |  |  |  | Cc1ccc(S(=O)(=O)NCC2CCCCO2)cc1-c1cnc(N)c(-n2cncn2)n1 (centres unmarked) [Example 127.17] |
| 500 | 5300 | 7200 | 5750 | 3 | > 9550 | 74 | 680 | 95 |  |  |  | Cc1ccc(S(=O)(=O)NC[C@H]2C[C@@H](O)C2)cc1-c1cnc(N)c(-c2cc(C3CC3)no2)n1 [Example 100, 3-(5-Amino-6-(3-cyclopropylisoxazol-5-yl)pyrazin-2-yl)-N-(((1s,3s)-3-hydroxycyclobutyl)methyl)-4-methylbenzenesulfonamide] |
| 240 | 1800 | > 10000 | 3900 | 124 | > 10000 | 131 | 640 |  |  |  |  | Cc1ccc(S(=O)(=O)NCCCF)cc1-c1cnc(N)c(-n2cncn2)n1 [Example 127.29] |
| 1800 | 4600 | > 10000 | > 10000 | 140 | 6700 | 1880 | 1200 |  |  |  |  | Cc1ccc(S(=O)(=O)NCC(C)(C)N2CCOCC2)cc1-c1cnc(N)c(-n2cncn2)n1 [Example 127.32] |
